Reference: PubChem BioAssay AID2305 (GlaxoSmithKline (GSK), 2010)
pIC50: −log10 of the molar value.

Test system: P. falciparum 3D7 growth, pLDH absorbance
Experiment: P. falciparum 3D7 growth inhibition, dose response, strain 3D7 (AID 2305)

SMILES | pIC50
COc1ccc2ncc(C#N)c(CCN3CCC(NCc4cnc5c(c4)OCCO5)CC3)c2n1 | 6.22
C=CCN1C(=O)c2[nH]nc(-c3cc(C)c(C)cc3O)c2C1c1cccc(Br)c1 (stereo unspecified) | 5.94
CCOC(=O)NCC(=O)Nc1cccc(-c2cccc(-c3nc4c(C)cccc4[nH]3)c2)c1 | 6.13
C#CCN1CCC2=C(C1)c1c(O)cc(C(C)C(C)CCc3ccc(F)cc3)cc1OC2(C)C (stereo unspecified) | 6.74
CCCCCN=C(N)c1ccc(OCCCCCOc2ccc(C(N)=NCCCCC)cc2)cc1 | 6.60
CN1CCC(NCc2ccc(-c3cccc(S(=O)(=O)NCc4ccccc4)c3)cc2)CC1 | 6.49
Cn1ccnc1-c1nc2ccccn2c1NCC(=O)Nc1ccccc1N1CCCCC1 | 6.01
Cc1ccc2[nH]c(-c3ccc(C(=O)NCc4ccc(Cl)c(Cl)c4)cc3)nc2c1C | 6.10
COc1ccc(NC(=O)/C=C/c2ccc(Cl)c(Cl)c2)cc1N1CCN(C)CC1 | 6.01
C=CCOC(=O)N1CCC(CNCc2ccc(-c3ccc(-c4nc5ccc(C(F)(F)F)cc5[nH]4)cc3)cc2)C1 (stereo unspecified) | 6.82
CN(Cc1cccc(O)c1)C1CCN(c2cc(NC(=O)c3ccc(F)cc3)ccn2)C1 (stereo unspecified) | 5.94
CC(C)Oc1ccc(C=CC(=O)Nc2noc3ccccc23)cc1 | 6.54
CN=C(NC)c1cccc(NC(=O)C=Cc2ccc(C=CC(=O)Nc3cccc(C(=NC)NC)c3)cc2)c1 | 6.80
CCOc1ccc(S(=O)(=O)N(C)c2ccc(OCC(=O)Nc3nccs3)cc2)cc1 | 6.02
C=CCN1Cc2c(O)cccc2C(c2ccc(O)c(O)c2)C1 (stereo unspecified) | 6.17
CN1CCCN(Cc2cccc(-c3cccc(NC(=O)c4cccc(Cl)c4)c3)c2)CC1 | 6.05
c1cnc2ccc(NCc3ccc(-c4ccc(CNC5CCCC5)cc4)cc3)cc2c1 | 6.06
CC1(C)N=C(N)N=C(N)N1OCc1cc2ccccc2cc1CON1C(N)=NC(N)=NC1(C)C | 6.89
COc1ccc(Cn2c(=O)[nH]c3cc(C(=O)NC4CCN(Cc5ccccc5)CC4)ccc3c2=O)cc1 | 6.12
COc1ccc2c(c1)nc(CN=C(N)N)n2Cc1ccc(Cl)cc1 | 6.44
OCCCCCCNc1ccnc2[nH]c3ccc(I)cc3c12 | 5.97
CC(C)c1cc(Oc2c(I)cc(CCNCc3ccccc3)cc2I)ccc1O | 6.27
Cc1ccc(C2CCN(CCCCNC(=O)c3ccc(NC(=O)c4ccc(Cl)cc4)cc3)CC2)c(OCC2CC2)c1 | 6.05
OC1(c2ccccc2)c2cc(Cl)ccc2OC1c1nc2c(Cl)ccc(Cl)c2o1 (stereo unspecified) | 6.52
Cc1nc2nc(N)nc(N)c2c(C)c1Cc1ccccc1 | 6.60
CCOc1ccc(C(Cc2ccccc2)NC(=O)c2cccnc2)cc1OCC (stereo unspecified) | 6.11

SMILES | pIC50
CCCCCCn1c2c(c(=N)c3c1CCC3)CCC2 | 6.74
CCC1(C)CC(CCNCc2ccccc2O)(c2ccc(C)cc2)CCO1 (stereo unspecified) | 7.40
Cc1cccc2[nH]c(-c3cccc(-c4ccc(NC(=O)C(=O)c5cccn5C)cc4)c3)nc12 | 6.42
O=S(=O)(Nc1ccc(CCN2CCC(N3CCCCC3)CC2)cc1)c1ccc2ccccc2c1 | 6.00
O=C(NC1CCC(CN2CCC(c3c[nH]c4ccccc34)CC2)CC1)NC12CC3CC(CC(C3)C1)C2 (stereo unspecified) | 5.97
COc1ccc2nccc([C@@H](O)CN3CCC(NCCOc4cccc(F)c4F)CC3)c2c1 | 6.62
CN(C)S(=O)(=O)c1ccc(C(=O)N(c2nc(-c3ccccc3)cs2)C2CCCCC2)cc1 | 6.12
CC(CN(C)C)C(=O)Nc1cccc(-c2ccc(-c3nc4ccc(C(F)(F)F)cc4[nH]3)cc2)c1 (stereo unspecified) | 6.60
O=C(Cn1c(CCc2cccc(F)c2F)cc(=O)c2cccnc21)N(CCn1ccnc1)Cc1ccc(-c2ccc(C(F)(F)F)cc2)cc1 | 6.17
COCCNCc1cccc(-c2ccc3c(Nc4cc(O)c(Cl)cc4F)ccnc3c2)c1 | 6.96
CC(C)c1cc(Oc2c(I)cc(CCN=C(N)N)cc2I)ccc1O | 6.10
CC(C)c1sc(N2CCN(C)CC2)nc1C(=O)NCCc1ccc(Br)cc1 | 5.95
NC(N)=NC(=O)Nc1cc(Cl)c(Cl)c(C(F)(F)F)c1 | 6.21
COc1ccc(S(=O)(=O)Nc2cc(Br)cc3c2OCCC3)cc1N1CCN(C(=O)C(Cl)(Cl)Cl)CC1 | 6.06
c1ccc(CC2=NCCN2)cc1 | 6.72
COc1ccc(Cc2c(N)nc3nc(N)nc(N)c3c2C)cc1 | 6.72
COc1cc2nc(NCc3ccccc3)nc(NCc3ccccc3)c2cc1OC | 6.82
C=Cc1sc(CNCCCNc2cc(=O)c3ccccc3[nH]2)c(C)c1Br | 5.98
COCCNCc1ccc(-c2ccccc2CNC2CCN(Cc3ccccc3)CC2)cc1 | 6.01
COc1cc2nc(NCCc3ccccc3)nc(NCCc3ccccc3)c2cc1OC | 6.55
C[C@H]1[C@H](c2cccc(Cl)c2)OCC(C)(C)N1C(=O)CCN1CCCCC1 | 6.04
Cc1nn(CC(C)C)c2sc(C(=O)Nc3nc(-c4ccccn4)cs3)cc12 | 6.02
Cc1cc(=O)c(-c2ccc(Oc3ccc(Cl)cc3Cl)cc2)c(C)[nH]1 | 6.08
O=C(Nc1ccc([N+](=O)[O-])cc1O)Nc1ccccc1Oc1ccccc1 | 6.03
CN(CCCCNC(=O)c1ccc(-c2ccccc2)cc1)C1CCc2c(O)cccc2C1 (stereo unspecified) | 6.14
